Patent US20260114449A1, “CONCENTRATED ANTIMICROBIAL SOLUTIONS CONTAINING SPARINGLY SOLUBLE ANTIMICROBIAL AGENTS” (Virox Technologies Inc., priority 2023, published 2026)

Assay: Solubility of salicylic acid in concentrated solution
Format: physicochemical
Description: Solutions 18-22 consisting of a solvent (Tamisolve NxG), a sparingly soluble antimicrobial agent (salicylic acid), and an antimicrobial surfactant (Biosoft S-101 LS) were prepared and are summarized in Table 3.
Solution 42 was prepared and visually inspected at the time of preparation, after 24 hours of storage at room temperature, and after one cycle of freezing and thawing.

- amount of salicylic acid effectively solubilized (Solution 42: Tamisolve NxG 35 wt. %, Biosoft S-101 LS 45 wt. %): 20 wt. %
- maximum amount of salicylic acid that was solubilized (Table 3 solutions: Tamisolve NxG 23.54 wt. % plus Biosoft S-101 LS): 13 wt. %
- solubility of salicylic acid relative to its solubility in water (in Solution 42): about 83 times
SMILES: O=C(O)c1ccccc1O [salicylic acid, Salicylic acid]
